Data as given in US20160166570A1, “TREATMENT OR PREVENTION OF NON-INFLAMMATORY NEURONAL DAMAGE FROM BRAIN TRAUMA AND STROKES USING MENTHOL, LINALOOL AND/OR ICILIN” (NESTEC S.A., priority 2013, published 2016).

Tests used:
[1] = system: Lateral Amygdala glutamatergic neuron; test: whole cell, current clamp recordings, square pulse at high depolarization, mouse brain slice; assay type: cell-based; conditions: for action potentials at higher stimulation levels / amount of current required to trigger an action potential / threshold to trigger an action potential: as summarised from the experimental results; for amount of current required to trigger an action potential / threshold to trigger an action potential: neocortex; for inactivation of the sodium fast channels / further neuronal firing relative to control: square pulse of 2.5s at high depolarization of membrane potential (approximately −30 mV), FIG. 2
Text: (§1) A mouse brain slice was used to study the damage from Menthol, Linalool and Icilin. The amygdaloid complex is located within the medial temporal lobe in neocortex and amygdala. The lateral and basolateral nuclei of the amygdaloid complex receive sensory information from cortical and thalamic structures, process the information, and then transmit the information, either directly or through the basal nucleus, to the central nucleus. For experimental analysis of neuronal activity, synaptic responses from the basolateral complex can be evoked electrically using electrodes, and the action potentials can be measured. […] A square pulse of 2.5s was applied at high depolarization of membrane potential (approximately −30 mV).

[2] = system: Lateral Amygdala glutamatergic neuron; test: whole cell, current clamp recordings with increasing concentration of gabazine (spontaneous action potential bursts), mouse brain slice; assay type: cell-based; conditions: Menthol 250 μM extracellularly 10 minutes previous to and during increasing concentrations of gabazine; recordings of 5 min, washout 10 min; FIG. 5 vs FIG. 3
Text: as §1, with “As shown, neurons spontaneously present action” for “A square pulse of 2.5s was applied at high depolarization of membrane”, “bursts due to massive presynaptic discharges.” for “(approximately −30 mV).”

Compound: O=C1NC(c2cccc([N+](=O)[O-])c2)=CCN1c1ccccc1O [Icilin]
- action potentials at higher stimulation levels [1]: abort action potentials at higher stimulation levels
- amount of current required to trigger an action potential [1]: increase the amount of current required to trigger an action potential
- threshold to trigger an action potential [1]: increase the threshold to trigger an action potential
- inactivation of the sodium fast channels / further neuronal firing relative to control [1]: inactivation of the sodium fast channels happens sooner relative to control

Compound: C=CC(C)(O)CCC=C(C)C (stereo not shown) [Linalool]
- action potentials at higher stimulation levels [1]: abort action potentials at higher stimulation levels
- amount of current required to trigger an action potential [1]: increase the amount of current required to trigger an action potential
- threshold to trigger an action potential [1]: increase the threshold to trigger an action potential
- inactivation of the sodium fast channels / further neuronal firing relative to control [1]: inactivation of the sodium fast channels happens sooner relative to control

Compound: CC1CCC(C(C)C)C(O)C1 (stereo not shown) [Menthol]
- spontaneous action potential bursts under gabazine [2]: complete absence or a strongly decreased presence of spontaneous bursts
- action potentials at higher stimulation levels [1]: abort action potentials at higher stimulation levels
- amount of current required to trigger an action potential [1]: increase the amount of current required to trigger an action potential
- threshold to trigger an action potential [1]: increase the threshold to trigger an action potential
- inactivation of the sodium fast channels / further neuronal firing relative to control [1]: inactivation of the sodium fast channels happens sooner relative to control
